From patent publication US20080317700A1 (priority 2006, published 2008)
Where two headings read alike, the source gives them in different places.

Columns and labels:
[1] = tested on: cyanobacteria Synechococcus 7002; format: cell-based; conditions: Synechococcus 7002, BG-11 agar, 1 mM herbicide; homopolymer as film cast in Petri dish
Procedure: (§1) BG-11 medium containing 1.5 wt. % agar was prepared and sterilized at 121° C., 1.05 kg cm^−2 for 20 minutes. Each herbicide tested was prepared as a 30 mM solution and added to the autoclaved agar medium to yield a 1 mM final concentration of the herbicide. A 20 mL aliquot of the liquid agar was transferred into a standard Petri dish (100×15 mm) and allowed to harden at room temperature. Cell suspensions of green algae CD 1 Red, cyanobacteria Synechocystos 6803 and Synechococcus 7002 were inoculated using a sterile inoculation loop. Dishes were stored at 25° C. under illumination with the cool-white fluorescent light having a constant light intensity of 5000 lx. The experiment for each herbicide was repeated five times. Control and treated cultures grew under the same conditions of temperature and photoperiod. In each experiment, the inhibition of growth in treated cultures was monitored relative to the growth in control samples using qualitative visual observation.
(§2) Additional experiments for testing the toxicity of the homopolymer of AA were implemented. Ten mL of aqueous polymer solution was placed on a sterile Petri dish and left at room temperature until all water was evaporated (3 days) to form a thin polymer film. Twenty mL of the liquid agar was transferred into the Petri dish and allowed to harden at room temperature. Cell suspensions of green algae CD 1 Red, cyanobacteria Synechocystos 6803 and Synechococcus 7002 were inoculated using a sterile inoculation loop. An analogous system containing no polymer film was used as a control for the experiment. Inhibition of growth in treated cultures was monitored relative to the growth in control samples using qualitative visual observations.

[2] = tested on: cyanobacteria Synechocystos 6803; format: cell-based; conditions: Synechocystos 6803, BG-11 agar, 1 mM herbicide; homopolymer as film cast in Petri dish
Procedure: as §1, §2

green algae CD 1 Red [3] = format: cell-based; conditions: BG-11 agar, 1 mM herbicide, homopolymer as film cast in Petri dish
Procedure: as §1, §2

[4] = tested on: cyanobacteria Synechococcus 7002; test: microbe, parasite or virus in culture; format: cell-based
Procedure: (§3) After phototrophical propagation during the 5 days under cool fluorescence light (intensity 5000 lux), the average radii of inhibition zones were measured. Water soaked filter paper circles were used as controls. Experiments for each herbicide concentration were repeated 3 times.

green algae CD 1 Red [5] = test: organism not typed; format: cell-based
Procedure: as §3

Navicula pelliculosa = test: Inhibition zones around polymer pellets, diatom Navicula; format: cell-based; conditions: pellet without herbicide 10 ± 1
Procedure: (§4) Rectangular copolymer pellets (15×10×1.5 mm) were formed from a model acrylic resin (designated as 459S2) containing several epoxy acrylic oligomers (57%), acrylic monomeric diluents (43%) and a corresponding amount of herbicide. A designated quantity of herbicide was dispersed or partially dissolved in 459S2 resin using ultrasonication and heat (60° C., overnight). To each sample, 1.5% wt. of commercial photoinitiator (ITX), 5% of ODAB synergist and 0.1% co-photoinitiator (Irgacure 819) were added. Liquid formulations were poured into an open top Teflon mold and irradiated under N2 by a 395 nm LED light source for 5 min followed by pellet removal.
(§5) Two different diatom cultures, Phaeodactylum tricornutum and Navicula pelliculosa were used in the biological activity tests. […] Following propagation over 5 days under continuous cool fluorescent light (5000 lx), the average radii of inhibition zones were measured. Experiments for each herbicide concentration were repeated at least two times.

[6] = tested on: Phaeodactylum tricornutum; test: Inhibition zones around polymer pellets, diatom Phaeodactylum; format: cell-based; conditions: Phaeodactilum, pellet without herbicide 0
Procedure: as §4, §5

[7] = tested on: natural freshwater biofouling organisms (periphyton); test: Field trial: periphyton biofouling on coated tiles in artificial stream (chlorophyll extraction); conditions: for Extracted chl (periphyton chl biomass) per tile: 459S2 coating with 0.15 M herbicide on ceramic tiles, 10 days in flow channels, bare tiles 11.1±2.87, blank resin 9.35±1.07
Procedure: Field tests were conducted during July and August, 2006 at the University of Michigan Biological Station Experimental Stream Laboratory located near Douglas Lake, Pellston, Mich. Resin 459S2 containing 0.15 M of a designated herbicide was coated on terracotta ceramic tiles (3×6 inches) pretreated with silanes for improved adhesion and photocured by an H-bulb system obtained from Fusion Inc. The coating thickness was 12.5 μm (0.5 mil). Bare tiles and tiles coated with 459S2 containing no additive were used as controls. Nine tiles for each series were placed into separate flow channels with a constant water flow of 3 L min^−1 for each channel. Each flow channel utilized water pumped from the East Branch of the Maple River containing natural freshwater biofouling organisms. Each flow channel was covered with a mesh screen to reduce direct light exposure and to ensure more favorable growth conditions. Tiles were left in the flow channels for 10 days.
Chlorophyll (chl) biomass attached to the surface of each tile was determined after the tiles had been washed three times with tap water to remove mud and other loosely attached species. The coated surface of the tile was submerged into a plastic vessel containing 25 mL of 90/10 acetone/saturated aqueous MgCl2. The container itself was placed into an ultrasonic bath and the entire system was sonicated for 30 seconds to facilitate chl extraction. The UV-vis spectrum of each extract was measured on a Shimadzu diode-array spectrophotometer using a 1 cm quartz cell. The amount of chl was determined using the following equation:^29
where Aλ1-λ2 is the difference in absorbance at two designated wavelengths and l is the spectroscopic cell pathlength. Two independent field trials were conducted.

[8] = Syn. 7002, herbicide concentration 0.3 mM, 5 days
[9] = Synechococcus, 120 h, read-out: Average radii of the inhibition zones
[10] = CD1 Red, herbicide concentration 0.3 mM, 5 days
[11] = CD1 Red, herbicide concentration 3 mM, 5 days
[12] = herbicide 0.15 M in 459S2 polymer pellet
[13] = herbicide 0.3 M in 459S2 polymer pellet
[14] = herbicide 0.1 M in 459S2 polymer pellet

SMILES	Growth on agar plates compared to control (visual) [1]	Growth on agar plates compared to control (visual) [2]	Growth on agar plates compared to control (visual) (green algae CD 1 Red [3])	Average radii of the inhibition zones [4, 8]	Average radii of the inhibition zones (green algae CD 1 Red [5]; [10])	Average radii of the inhibition zones (green algae CD 1 Red [5]; [11])	Diameter of Inhibition Zone (Bleaching indicates no growth detected on 100 mm plate) (Navicula pelliculosa; [12]) [mm]	Diameter of Inhibition Zone (Bleaching indicates no growth detected on 100 mm plate) (Navicula pelliculosa; [13])	Diameter of Inhibition Zone (Bleaching indicates no growth detected on 100 mm plate) [6, 14] [mm]	Diameter of Inhibition Zone (Bleaching indicates no growth detected on 100 mm plate) [6, 13]	Extracted chl (periphyton chl biomass) per tile [7] [μg tile^−1]	other results
C=CC(=O)N(CC(=O)O)CP(=O)(O)O [AA, N-Acryloyl-N-(phosphonomethyl)glycine]	complete inhibition of growth and bleaching	complete inhibition of growth and bleaching	complete inhibition of growth and bleaching	No	No	No	20 ± 2	Bleaching	23 ± 2	Bleaching	7.92±1.12	Average radii of the inhibition zones ([4]; Syn. 7002, herbicide concentration 3 mM, 5 days): No; zone of inhibition at 30000 µM [4, 9]: 6.5 mm; zone of inhibition at 300000 µM [4, 9]: 15 mm; zone of inhibition at 300000 µM (green algae CD 1 Red [5]; 120 h, read-out: Average radii of the inhibition zones): 10 mm; Average radii of the inhibition zones (green algae CD 1 Red [5]; CD1 Red, herbicide concentration 30 mM, 5 days): No; Periphyton chl relative to tiles containing unfunctionalized glyphosate ([7]; 459S2 coating with 0.15 M herbicide, 10 days, unpaired two-tailed t-test, P<0.05): roughly one-third
O=C(O)CNCP(=O)(O)O [Glyphosate, N-(Phosphonomethyl)glycine, reference compound]	complete inhibition of growth and bleaching	complete inhibition of growth and bleaching	complete inhibition of growth and bleaching	No	No	No	22.5 ± 2	Bleaching	17.5 ± 2	Bleaching	11.9±2.56	Average radii of the inhibition zones ([4]; Syn. 7002, herbicide concentration 300 mM, 5 days): Complete; zone of inhibition at 3000 µM ([4]; Synechococcus, 120 h, Syn. 7002, herbicide concentration 3 mM, 5 days, read-out: Average radii of the inhibition zones): 6 mm; zone of inhibition at 30000 µM ([4]; Synechococcus, 120 h, Syn. 7002, herbicide concentration 30 mM, 5 days, read-out: Average radii of the inhibition zones): 8 mm; zone of inhibition at 30000 µM (green algae CD 1 Red [5]; 120 h, CD1 Red, herbicide concentration 30 mM, 5 days, read-out: Average radii of the inhibition zones): 7.5 mm; Average radii of the inhibition zones (green algae CD 1 Red [5]; CD1 Red, herbicide concentration 300 mM, 5 days): Complete
